Structures can show the parent of a compound that is named as a salt.
Assays:
normal cell lines = test system: normal cell lines; parameters: method as in PMID 25215430; conditions: cell line not given; cited from earlier work

Structure (SMILES) | melting point | Cytotoxicity IC50 (normal cell lines)
C[N+](CCO)(CCO)CCCCCCCCSc1nnc(-c2ccc(C(F)(F)F)cc2)o1 (as salt: bromide) [Compound 6b] | 78 to 80 °C | –
C[N+](CCO)(CCO)CCCCCCCCCCCCSc1nnc(-c2ccc(F)cc2)o1 (as salt: bromide) [Compound 5d] | 98 to 100 °C | –
C[N+](CCO)(CCO)CCCCCCSc1nnc(-c2ccc(C(F)(F)F)cc2)o1 (as salt: bromide) [Compound 6a] | 93 to 94 °C | –
CCCCCCCCCCCC[N+](C)(CCO)CCO [Compound C12QAS, N-methyl-N-dodecyl-N,N-bis(2-hydroxyethyl) ammonium bromides] | – | ca. 4.00 μg/mL
C[N+](CCO)(CCO)CCCCCCSc1nnc(-c2ccc(F)cc2)o1 (as salt: bromide) [Compound 5a] | 74 to 76 °C | –
C[N+](CCO)(CCO)CCCCCCCCSc1nnc(-c2ccc(F)cc2)o1 (as salt: bromide) [Compound 5b] | 81 to 82 °C | –
C[N+](CCO)(CCO)CCCCCCCCCCCCSc1nc2ccccc2s1 (as salt: bromide) [Compound 13d] | 106 to 107 °C | –
C[N+](CCO)(CCO)CCCCCCCCCCSc1nnc(-c2ccc(F)cc2)o1 (as salt: bromide) [Compound 5c] | 102 to 103 °C | –

The next lines start with results.

melting point | Structure (SMILES) | Cytotoxicity IC50 (normal cell lines)
77 to 78 °C | Cc1nnc(SCCCCCCCCCC[N+](C)(CCO)CCO)s1 (as salt: bromide) [Compound 16c] | –
87 to 89 °C | C[N+](CCO)(CCO)CCCCCCCCSc1nc2ccccc2s1 (as salt: bromide) [Compound 13b] | –
142 to 143 °C | C[N+](CCO)(CCO)CCCCCCSc1nc2ccccc2s1 (as salt: bromide) [Compound 13a] | –
78 to 80 °C | CC(C)(C)c1ccc(-c2nnc(SCCCCCCCCCC[N+](C)(CCO)CCO)o2)cc1 (as salt: bromide) [Compound 7c] | –
78 to 80 °C | CC(C)(C)c1ccc(-c2nnc(SCCCCCC[N+](C)(CCO)CCO)o2)cc1 (as salt: bromide) [Compound 7a] | –
95 to 96 °C | Cc1nnc(SCCCCCCCCCCCC[N+](C)(CCO)CCO)s1 (as salt: bromide) [Compound 16d] | –
56 to 57 °C | Cc1nnc(SCCCCCC[N+](C)(CCO)CCO)s1 (as salt: bromide) [Compound 16a] | –
74 to 75 °C | Cc1nnc(SCCCCCCCC[N+](C)(CCO)CCO)s1 (as salt: bromide) [Compound 16b] | –
128 to 129 °C | C[N+](CCO)(CCO)CCCCCCCCCCSc1nc2ccccc2o1 (as salt: bromide) [Compound 10c] | –
111 to 112 °C | C[N+](CCO)(CCO)CCCCCCCCCCSc1nc2ccccc2s1 (as salt: bromide) [Compound 13c] | –
125 to 127 °C | C[N+](CCO)(CCO)CCCCCCCCSc1nc2ccccc2o1 (as salt: bromide) [Compound 10b] | –
125 to 127 °C | C[N+](CCO)(CCO)CCCCCCCCCCCCSc1nc2ccccc2o1 (as salt: bromide) [Compound 10d] | –
71 to 72 °C | CC(C)(C)c1ccc(-c2nnc(SCCCCCCCC[N+](C)(CCO)CCO)o2)cc1 (as salt: bromide) [Compound 7b] | –
